In patent US12577255B2, “MDM2-based modulators of proteolysis and associated methods of use” (Arvinas Operations, Inc., priority 2015, dated 2026):

target: T1, bromodomain-containing protein 4 (BRD4) (Homo sapiens, UniProt O60885); test: BRD4 Western blot (degradation); format: cell-based; conditions: at 1 μM; VCaP cells, 16 h
T1 construct: VCaP cells were chased from ATCC and cultured in Dulbecco's Modified Eagle's Medium; host or cells: VCaP
Procedure: The following biological assays were performed to evaluate the protein degradation in various cell types using representative compounds disclosed. The degradation of the following proteins were evaluated: bromodomain-containing protein 4 (BRD4), androgen receptor (AR), c-Myc, c-Jun N-terminal kinases (JNK), and enhancer of zeste homolog 2 (EZH2).
VCaP cells were chased from ATCC and cultured in Dulbecco's Modified Eagle's Medium (ATCC), supplemented with 10% FBS (ATCC) and Penicillin/Streptomycin (Life Technologies). DMSO control and compound treatments (0.03 μM to 1 μM) were performed in 12-well plates for 16 h. cells were harvested, and lysed in RIPA buffer (50 mM Tris pH8, 150 mM NaCl, 1% Tx-100, 0.1% SDS, 0.5% sodium deoxycholate) supplemented with protease and phosphatase inhibitors. Lysates were clarified at 16,000 g for 10 minutes, and protein concentration was determined. Equal amount of protein (20 μg) was subjected to SDS-PAGE analysis and followed by immunoblotting according to standard protocols. The antibodies used were BRD4 (Cell signaling #13440), and Actin (Sigma #5441). Detection reagents were Clarity Western ELC substrate (Bio-rad #170-5060).

Degradation activity BRD4	Compound
B (25 to 50% degradation at 1 μM)	COc1cc(C(=O)NCCOCCOCCOCCNC(=O)C[C@@H]2N=C(c3ccc(Cl)cc3)c3c(sc(C)c3C)-n3c(C)nnc32)ccc1NC(=O)C1N[C@@H](CC(C)(C)C)[C@](C#N)(c2ccc(Cl)cc2F)[C@H]1c1cccc(Cl)c1F (stereo partly drawn) [Compound A1829, 3-(3-chloro-2-fluorophenyl)-4-(4-chloro-2-fluorophenyl)-N-{4-[(2-{2-[2-(2-{2-[(9S)-7-(4-chlorophenyl)-4,5,13-trimethyl-3-thia-1,8,11,12-tetraazatricyclo[8.3.0.0^2,^6]trideca-2(6),4,7,10,12-pentaen-9-yl]acetamido}ethoxy)ethoxy]ethoxy}ethyl)carbamoyl]-2-methoxyphenyl}-4-cyano-5-(2,2-dimethylpropyl)pyrrolidine-2-carboxamide]
A (0 to 25% degradation at 1 μM)	COc1cc(C(=O)NCCOCCOCCOCCNC(=O)C[C@@H]2N=C(c3ccc(Cl)cc3)c3c(sc(C)c3C)-n3c(C)nnc32)ccc1NC(=O)[C@H]1N[C@H](CC(C)(C)C)[C@@](C#N)(c2ccc(Cl)cc2F)[C@@H]1c1cccc(Cl)c1F [Compound A1875, (2S,3R,4S,5R)-3-(3-chloro-2-fluorophenyl)-4-(4-chloro-2-fluorophenyl)-N-{4-[(2-{2-[2-(2-{2-[(9S)-7-(4-chlorophenyl)-4,5,13-trimethyl-3-thia-1,8,11,12-tetraazatricyclo[8.3.0.0^2,^6]trideca-2(6),4,7,10,12-pentaen-9-yl]acetamido}ethoxy)ethoxy]ethoxy}ethyl)carbamoyl]-2-methoxyphenyl}-4-cyano-5-(2,2-dimethylpropyl)pyrrolidine-2-carboxamide]
C (larger than 50% degradation at 1 μM)	Cc1sc2c(c1C)C(c1ccc(Cl)cc1)=N[C@@H](CC(=O)NCCOCCOCCOCCOCCNC(=O)C1N[C@@H](CC(C)(C)C)[C@](C#N)(c3ccc(Cl)cc3F)[C@H]1c1cccc(Cl)c1F)c1nnc(C)n1-2 (stereo partly drawn) [Compound A1307, N-(14-{[3-(3-chloro-2-fluorophenyl)-4-(4-chloro-2-fluorophenyl)-4-cyano-5-(2,2-dimethylpropyl)pyrrolidin-2-yl]formamido}-3,6,9,12-tetraoxatetradecan-1-yl)-2-[(9S)-7-(4-chlorophenyl)-4,5,13-trimethyl-3-thia-1,8,11,12-tetraazatricyclo-[8.3.0.0^2,^6]trideca-2(6),4,7,10,12-pentaen-9-yl]acetamide]
B (25 to 50% degradation at 1 μM)	COc1cc(C(=O)NCCOCCOCCNC(=O)C[C@@H]2N=C(c3ccc(Cl)cc3)c3c(sc(C)c3C)-n3c(C)nnc32)ccc1NC(=O)C1N[C@@H](CC(C)(C)C)[C@](C#N)(c2ccc(Cl)cc2F)[C@H]1c1cccc(Cl)c1F (stereo partly drawn) [Compound A1863, 3-(3-chloro-2-fluorophenyl)-4-(4-chloro-2-fluorophenyl)-N-[4-({2-[2-(2-{2-[(9S)-7-(4-chlorophenyl)-4,5,13-trimethyl-3-thia-1,8,11,12-tetraazatricyclo-[8.3.0.0^2,^6]trideca-2(6),4,7,10,12-pentaen-9-yl]acetamido}ethoxy)ethoxy]-ethyl}carbamoyl)-2-methoxyphenyl]-4-cyano-5-(2,2-dimethylpropyl)pyrrolidine-2-carboxamide]
C (larger than 50% degradation at 1 μM)	COc1cc(C(=O)NCCOCCOCCOCCOCCNC(=O)C[C@@H]2N=C(c3ccc(Cl)cc3)c3c(sc(C)c3C)-n3c(C)nnc32)ccc1NC(=O)C1N[C@@H](CC(C)(C)C)[C@](C#N)(c2ccc(Cl)cc2F)[C@H]1c1cccc(Cl)c1F (stereo partly drawn) [Compound A1876, 3-(3-chloro-2-fluorophenyl)-4-(4-chloro-2-fluorophenyl)-N-{4-[(14-{2-[(9S)-7-(4-chlorophenyl)-4,5,13-trimethyl-3-thia-1,8,11,12-tetraazatricyclo[8.3.0.0^2,^6]-trideca-2(6),4,7,10,12-pentaen-9-yl]acetamido}-3,6,9,12-tetraoxatetradecan-1-yl)carbamoyl]-2-methoxyphenyl}-4-cyano-5-(2,2-dimethylpropyl)pyrrolidine-2-carboxamide]
C (larger than 50% degradation at 1 μM)	COc1cc(C(=O)NCCOCCNC(=O)C[C@@H]2N=C(c3ccc(Cl)cc3)c3c(sc(C)c3C)-n3c(C)nnc32)ccc1NC(=O)C1N[C@@H](CC(C)(C)C)[C@](C#N)(c2ccc(Cl)cc2F)[C@H]1c1cccc(Cl)c1F (stereo partly drawn) [Compound A1890, 3-(3-chloro-2-fluorophenyl)-4-(4-chloro-2-fluorophenyl)-N-(4-{[2-(2-{2-[(9S)-7-(4-chlorophenyl)-4,5,13-trimethyl-3-thia-1,8,11,12-tetraazatricyclo[8.3.0.0^2,^6]-trideca-2(6),4,7,10,12-pentaen-9-yl]acetamido}ethoxy)ethyl]carbamoyl}-2-methoxyphenyl)-4-cyano-5-(2,2-dimethylpropyl)pyrrolidine-2-carboxamide]
B (25 to 50% degradation at 1 μM)	COc1cc(C(=O)NCCOCCOCCOCCNC(=O)C[C@@H]2N=C(c3ccc(Cl)cc3)c3c(sc(C)c3C)-n3c(C)nnc32)ccc1NC(=O)[C@@H]1N[C@@H](CC(C)(C)C)[C@](C#N)(c2ccc(Cl)cc2F)[C@H]1c1cccc(Cl)c1F [Compound A1874, (2R,3S,4R,5S)-3-(3-chloro-2-fluorophenyl)-4-(4-chloro-2-fluorophenyl)-N-{4-[(2-{2-[2-(2-{2-[(9S)-7-(4-chlorophenyl)-4,5,13-trimethyl-3-thia-1,8,11,12-tetraazatricyclo[8.3.0.0^2,^6]trideca-2(6),4,7,10,12-pentaen-9-yl]acetamido}ethoxy)ethoxy]ethoxy}ethyl)carbamoyl]-2-methoxyphenyl}-4-cyano-5-(2,2-dimethylpropyl)pyrrolidine-2-carboxamide]
B (25 to 50% degradation at 1 μM)	Cc1sc2c(c1C)C(c1ccc(Cl)cc1)=N[C@@H](CC(=O)NCCOCCOCCOCCNC(=O)C1N[C@@H](CC(C)(C)C)[C@](C#N)(c3ccc(Cl)cc3F)[C@H]1c1cccc(Cl)c1F)c1nnc(C)n1-2 (stereo partly drawn) [Compound A1306, N-(2-{2-[2-(2-{[3-(3-chloro-2-fluorophenyl)-4-(4-chloro-2-fluorophenyl)-4-cyano-5-(2,2-dimethylpropyl)pyrrolidin-2-yl]formamido}ethoxy)ethoxy]ethoxy}ethyl)-2-[(9S)-7-(4-chlorophenyl)-4,5,13-trimethyl-3-thia-1,8,11,12-tetraazatricyclo[8.3.0.0^2,^6]trideca-2(6),4,7,10,12-pentaen-9-yl]acetamide]
A (0 to 25% degradation at 1 μM)	COc1cc(C(=O)NCCOCCOCCNC(=O)C[C@@H]2N=C(c3ccc(Cl)cc3)c3c(sc(C)c3C)-n3c(C)nnc32)ccc1NC(=O)[C@H]1N[C@H](CC(C)(C)C)[C@@](C#N)(c2ccc(Cl)cc2F)[C@@H]1c1cccc(Cl)c1F [Compound A1865, (2S,3R,4S,5R)-3-(3-chloro-2-fluorophenyl)-4-(4-chloro-2-fluorophenyl)-N-[4-({2-[2-(2-{2-[(9S)-7-(4-chlorophenyl)-4,5,13-trimethyl-3-thia-1,8,11,12-tetraazatricyclo-[8.3.0.0^2,^6]trideca-2(6),4,7,10,12-pentaen-9-yl]acetamido}ethoxy)ethoxy]ethyl}-carbamoyl)-2-methoxyphenyl]-4-cyano-5-(2,2-dimethylpropyl)pyrrolidine-2-carboxamide]
